Entries after “also recorded” stand apart in the source; their conditions may differ.
What was measured:
[1] = system: WKY rats on high salt diet; assay: Effect of VIP fragments on myocardial fibrosis; type: in vivo, rat; conditions: for degree of myocardial fibrosis: 5 pmol/kg/min for 4 weeks via Alzet minipump, compared with vehicle control, Masson Trichrome sections; for effectiveness on myocardial fibrosis relative to VIP: all peptides 5 pmol/kg/min for 4 weeks, FIGS. 8 to 10
Description: To determine whether smaller VIP related peptides had any of the biological activities of the complete VIP molecule, particularly in reducing myocardial fibrosis, the degree of myocardial fibrosis after treatment with VIP(1-12) (SEQ ID No. 2) at 5 pmol/kg/min and VIP (6-28) (SEQ ID No. 3) at 5 pmol/kg/min for 4 weeks via Alzet minipump was compared with the complete VIP (5 pmol/kg/min) (SEQ ID No. 1) and vehicle control. The VIP fragments were purchased from Auspep (Melbourne, Australia).
Briefly, 14 week old WKY rats were commenced on high salt diet as described earlier. They underwent operative insertion of an Alzet minipump for infusion of VIP peptide or vehicle. After 4 weeks the rats were anaesthetised, the hearts harvested and myocardial fibrosis quantitated on Masson Trichrome sections using Image Pro Plus Version 5 (Cybernetics). […] FIGS. 8 to 10 show the results of these studies.

[2] = system: SHR and WKY rats; assay: Preliminary four-week VIP infusion in rat models of myocardial fibrosis; type: in vivo; conditions: VIP 7.2 nmol/kg/day via Alzet mini pump for four weeks, compared to control groups
Description: Further preliminary experiments have been conducted on a number of animal models, which encompass a range of fibrous tissue replacement, varying from mild to moderate to severe. The experiments on the animal models encompassed a variety of aetiologies (alone and in combination) and a range of levels of induced fibrosis. For these experiments two types of rats were used, spontaneously hypertensive rats (SHR) and normotensive control Wistar-Kyoto rats (WKY). The WKY rats were given: 1) low salt diet, 2) high salt diet, or 3) L-NAME (ω-monomethyl-nitro-L-arginine; 10 mg/kg/day) plus high salt diet. The SHR rats were given low or high salt diets. The effect of VIP infusion in diabetic heart disease was also studied in the WKY rate with streptozotocin induced diabetes.
In each treatment group, rats were randomised to VIP (SEQ ID No. 1) or vehicle infusion (n=24 in each group) for four weeks. VIP was administered via Alzet mini pump at a rate of 7.2 nmol/kg/day.
After four weeks, the rats were anaesthetised and the hearts were harvested. Myocardial VIP concentrations and myocardial fibrosis were quantitated.

[3] = system: WKY rats; assay: Acute VIP infusion, uptake of VIP by the myocardium; type: in vivo, rat
Method: In preliminary studies a series of acute infusion experiments have been conducted in animal models.
Fourteen week old WKY rats were randomised to low salt diet (0.008%), intermediate salt diet (2.2%), high salt diet (4.4%) or high salt diet plus L-NAME (10 mg/kg/day) in the drinking water for 4 weeks (n=16 rats per group). On the day of the experiment the rats were anaesthetised and venous and arterial cannulae inserted. After a one hour rest equilibration period the rats were randomised to vehicle control (Haemaccell, Aventis) or VIP (10 pmol/kg/min) infusion (SEQ ID No. 1) for one hour at an infusion rate of 0.017 ml/min. The hearts were then harvested, myocardial VIP concentrations were measured and myocardial fibrosis quantitated.
The difference between the mean myocardial VIP concentrations after VIP or control infusion is a measure of VIP uptake by the heart.
(§1) VIP was measured by radioimmunoassay in known manner (see Davis R. E., Shelley S., Macdonald G. J. & Duggan K. A. (1992) The effects of a high sodium diet on the metabolism and secretion of vasoactive intestinal peptide in the rabbit. J. Physiol. 451:17-23. Duggan K. A., Ye V. Z. C., Jones D. M. Davis R. E. & Macdonald G. J. (1995) Effects of Endopeptidase 24.11 blockade on plasma and tissue concentrations of vasoactive intestinal peptide Clin. Sci. 89:267-271). […]

[4] = system: WKY rat fed a high salt diet; assay: VIP infusion in model of myocardial fibrosis: high salt diet; type: in vivo
Method: (§2) Three animal models of myocardial fibrosis were used (animals obtained from Australian Animal Resources, Perth, Western Australia, Australia) • i) WKY rat fed a high salt diet • ii) WKY rat fed a high salt diet and given L-NAME (ω-monomethyl-nitro-L-arginine, Sigma Chemical Co.) 10 mg/kg/day in the drinking water • iii) WKY rats with diabetes induced by streptozotocin injection 60 mg/kg
(§3) In each model the rats were randomised to VIP (H-[…]NH2, (SEQ ID No. 1) obtained from Auspep, Australia) or vehicle control (Haemaccel, Aventis) infusion for 4 weeks via Alzet minipump (n=6-8 each experimental group). The dose of VIP was 5 pmol/kg/min.
(§4) In models i) and ii) 14 week old WKY rats were commenced on high salt diet or high salt diet plus L-NAME. They underwent operative insertion of an Alzet minipump for infusion of VIP or vehicle. After 4 weeks the rats were anaesthetised and the hearts harvested. Myocardial VIP and myocardial fibrosis were quantitated.
(§5) Myocardial VIP concentrations and myocardial fibrosis were quantitated.
as §1

[5] = system: WKY rat fed a high salt diet and given L-NAME; assay: VIP infusion in model of myocardial fibrosis: high salt diet plus L-NAME; type: in vivo
Method: as §2, §3, §4, §5, §1

[6] = system: WKY rats with diabetes induced by streptozotocin injection; assay: VIP infusion in model of myocardial fibrosis: streptozotocin diabetes; type: in vivo, rat; conditions: VIP 5 pmol/kg/min for 4 weeks after 8 weeks of diabetes; FIG. 6
Method: as §2, §3
In model iii) rats were injected with streptozotocin 60 mg/kg at 14 weeks of age. After 8 weeks the diabetic rats were randomised to VIP infusion (5 pmol/kg/min) (SEQ ID No. 1) or no treatment. VIP was administered as above. […]
as §5, §1

[7] = system: isolated rat heart; conditions: heart perfused with VIP before ischaemia and reperfusion; cited from earlier work
[8] = system: isolated trabeculae from human hearts; conditions: atria and ventricles of hearts from previously healthy individuals; cited from earlier work
[9] = system: normal heart; conditions: cited from earlier work

## VIP(1-12): active fragment of VIP, residues 1-12, purchased from Auspep (HSDAVFTDNYTR; listed as Homo sapiens)
[1]
  degree of myocardial fibrosis: decreased the degree of myocardial fibrosis
  effectiveness on myocardial fibrosis relative to VIP: approximately ⅓

## CC[C@H](C)[C@H](NC(=O)[C@H](CO)NC(=O)[C@H](CC(N)=O)NC(=O)[C@H](CC(C)C)NC(=O)[C@H](Cc1ccc(O)cc1)NC(=O)[C@H](CCCCN)NC(=O)[C@H](CCCCN)NC(=O)[C@@H](NC(=O)[C@H](C)NC(=O)[C@H](CCSC)NC(=O)[C@H](CCC(N)=O)NC(=O)[C@H](CCCCN)NC(=O)[C@H](CCCNC(=N)N)NC(=O)[C@H](CC(C)C)NC(=O)[C@H](CCCNC(=N)N)NC(=O)[C@@H](NC(=O)[C@H](Cc1ccc(O)cc1)NC(=O)[C@H](CC(N)=O)NC(=O)[C@H](CC(=O)O)NC(=O)[C@@H](NC(=O)[C@H](Cc1ccccc1)NC(=O)[C@@H](NC(=O)[C@H](C)NC(=O)[C@H](CC(=O)O)NC(=O)[C@H](CO)NC(=O)[C@@H](N)Cc1c[nH]cn1)C(C)C)[C@@H](C)O)[C@@H](C)O)C(C)C)C(=O)N[C@@H](CC(C)C)C(=O)N[C@@H](CC(N)=O)C(N)=O [VIP]
[2]
  myocardial fibrosis index: significantly lower
[3]; VIP 10 pmol/kg/min for one hour, low, intermediate, high salt diet or high salt diet plus L-NAME, FIG. 1
  difference between mean myocardial VIP concentrations after VIP or control infusion (VIP uptake by the heart): As fibrosis worsens the amount of VIP taken up by the heart increases; also recorded: increase as the degree of fibrosis increased
[3]; acute infusion experiments in animal models with differing levels of fibrosis
  uptake of VIP by the heart from the plasma: more avid with increasing degrees of fibrosis; also recorded: the higher the level of fibrosis, the greater the uptake of VIP by the heart
[4]; VIP 5 pmol/kg/min 4 weeks, compared with untreated 14 week old rats, FIG. 4
  regression of existing myocardial fibrosis: regression of myocardial fibrosis
[4]; VIP 5 pmol/kg/min for 4 weeks via Alzet minipump vs vehicle control, FIG. 2
  myocardial fibrosis index: significantly lower
[4]; after four week intravenous infusion of VIP or vehicle control, FIG. 7A
  myocardial content of VIP: clear association between the degree of fibrosis and uptake of exogenous VIP
[5]; VIP 5 pmol/kg/min 4 weeks, compared with untreated 14 week old rats, FIG. 5
  regression of existing myocardial fibrosis: regression of myocardial fibrosis
[5]; VIP 5 pmol/kg/min for 4 weeks via Alzet minipump vs vehicle control, L-NAME 10 mg/kg/day, FIG. 3
  myocardial fibrosis index: significantly lower
[5]; after four week intravenous infusion of VIP or vehicle control, FIG. 7B
  myocardial content of VIP: clear association between the degree of fibrosis and uptake of exogenous VIP
[6]
  regression of existing myocardial fibrosis: regression of myocardial fibrosis
[7]
  myocardial function (left ventricular functions, coronary flow, tissue injury): significant improvement of myocardial function
[8]
  ionotropic effect: direct positive ionotropic effect
[9]
  uptake of injected VIP by the heart: not taken up by the normal heart

## VIP(6-28): active fragment of VIP, residues 6-28, purchased from Auspep (FTDNYTRLRKQMAVKKYLNSILN; listed as Homo sapiens)
[1]
  degree of myocardial fibrosis: decreased the degree of myocardial fibrosis
  effectiveness on myocardial fibrosis relative to VIP: as effective as VIP

Reference: patent publication US7951777B2, “Compositions and methods for treatment of cardiovascular disease” (Vectus Biosystems Limited, priority 2004, dated 2011)
